From ChEMBL document CHEMBL5137025, “Tuberculosis Drug Discovery: Challenges and New Horizons” (J Med Chem, 2022)
Values after ≈ are worked out from the molar mass of the structure shown.

How the values were obtained:
[1] = tested on: Mycobacterium tuberculosis; test: Antibacterial activity against Mycobacterium tuberculosis in chronic Mtb infection C3HeB/FeJ mouse model assessed as reduction in log10 CFU in lungs at 250 mg/kg, po via gavage for 2 weeks; format: functional
[2] = Cytotoxicity against African green monkey Vero cells treated for 72 hrs by microplate reader method; format: toxicity, cell-based; conditions: chlorocebus sabaeus
[3] = tested on: Mycobacterium tuberculosis; test: Antibacterial activity against Mycobacterium tuberculosis in acute Mtb infection C3HeB/FeJ mouse model assessed as reduction in log10 CFU in lungs at 250 mg/kg, po via gavage for 2 weeks; format: functional
[4] = Protein binding in mouse plasma; format: ADME, cell-free; conditions: read-out: PPB (converted)
[5] = Kinetic aqueous solubility of the compound; format: physicochemical; conditions: buffer; read-out: Kinetic_solubility
[6] = tested on: Mycobacterium tuberculosis; test: Antibacterial activity against Mycobacterium tuberculosis CDC1551 infected in mouse J774 cells assessed as inhibition of bacterial growth at 20 uM incubated for 24 hrs relative to control; format: functional; design: scale not given: the % may be the effect or the level left
[7] = Metabolic stability in mouse liver microsomes assessed as half life; format: ADME, Microsome
[8] = tested on: Mycobacterium tuberculosis; test: Antibacterial activity against Mycobacterium tuberculosis Erdman in acute Mtb infection BALB/c mouse model assessed as reduction in log10 CFU in lungs at 100 mg/kg, po qd via gavage for 4 weeks; format: functional
[9] = tested on: Mycobacterium tuberculosis; format: functional; conditions: H37Rv, time 14-21 day
[10] = tested on: Mycobacterium tuberculosis; format: functional; conditions: H37Rv, 168 h, time 7 day
[11] = tested on: Mycobacterium tuberculosis; format: functional, H37Rv; conditions: dose 100 mg/kg; route po; time 3 weeks
[12] = tested on: Mycobacterium tuberculosis; format: functional, H37Rv; conditions: dose 50 mg/kg; route po; time 3 weeks
[13] = tested on: Mycobacterium tuberculosis; test: Antibacterial activity against Mycobacterium tuberculosis Erdman in chronic Mtb infection BALB/c mouse model assessed as reduction in log10 CFU in lungs at 200 mg/kg, po via gavage for 30 days in presence of 1-aminobenzotriazole; format: functional; conditions: time 30 day
[14] = Permeability in human Caco2 cells treated for 1 to 2 hrs by LC-MS/MS analysis; format: ADME, cell-based; conditions: Caco-2, time 1-2 hrs, read-out: permeability
[15] = Cytotoxicity against African green monkey Vero cells treated for 2 days by Cell Titer Glo assay; format: toxicity, cell-based; conditions: chlorocebus sabaeus, time 2 day
[16] = tested on: Mycobacterium tuberculosis; test: Antibacterial activity against Mycobacterium tuberculosis Erdman in chronic Mtb infection BALB/c mouse model assessed as reduction in log10 CFU in lungs at 200 mg/kg, po via gavage for 30 days; format: functional; conditions: time 30 day
[17] = tested on: Mycobacterium tuberculosis; format: functional; conditions: H37Rv, 216 h, time 9 day
[18] = tested on: Mycobacterium tuberculosis; test: Antibacterial activity against Mycobacterium tuberculosis Erdman in chronic Mtb infection BALB/c mouse model assessed as reduction in log10 CFU in lungs at 100 mg/kg, po via gavage for 30 days in presence of 1-aminobenzotriazole; format: functional; conditions: time 30 day
[19] = Solubility of the compound in microbiological medium at pH 6.8; format: physicochemical
[20] = tested on: Mycobacterium tuberculosis; format: functional; conditions: H37Rv, 120 h, time 5 day
[21] = Metabolic stability in human liver S9 microsomes assessed as half life in presence of NADPH by LC-MS/MS analysis; format: ADME
[22] = Half life in BALB/c mouse at 200 mg/kg, po measured for 0.5 to 24 hrs by LC-MS analysis; format: ADME, organism-based; conditions: in vivo, time 0.5-24 hrs
[23] = tested on: Mycobacterium tuberculosis; format: functional; conditions: H37Rv, 336 h, time 14 day
[24] = Cytotoxicity against human THP-1 cells assessed as reduction in cell viability treated for 96 hrs by MTT assay; format: toxicity, cell-based
[25] = tested on: Mycobacterium tuberculosis; test: Bactericidal activity against Mycobacterium tuberculosis H37Rv in acute Mtb infection BALB/c mouse model assessed as reduction in relative light unit at 100 mg/kg for 6 days; format: functional; conditions: time 6 day
[26] = Metabolic stability in mouse liver microsome assessed as half life in presence of NADPH measured upto 60 mins by LC-MS/MS analysis; format: ADME; conditions: liver microsomes
[27] = tested on: Mycobacterium tuberculosis; test: microbe, parasite or virus in culture; conditions: H37Rv
Description: Antibacterial activity against Mycobacterium tuberculosis H37Rv assessed as inhibition of bacterial growth

A549 = test: Cytotoxicity against human A549 cells treated for 72 hrs by MTT assay; format: functional
[28] = tested on: Mycobacterium tuberculosis; format: functional, H37Rv; conditions: dose 3.1 mg/kg; route po; time 4 weeks
[29] = tested on: Mycobacterium tuberculosis; format: functional, H37Rv; conditions: dose 200 mg/kg; route po; time 4 weeks
[30] = molecular target: Voltage-gated inwardly rectifying potassium channel KCNH2 (Homo sapiens, UniProt Q12809); test: Inhibition of hERG expressed in human HEK293 cells by manual patch clamp method; format: toxicity, cell-based
Voltage-gated inwardly rectifying potassium channel KCNH2, sequence (Q12809 whole entry): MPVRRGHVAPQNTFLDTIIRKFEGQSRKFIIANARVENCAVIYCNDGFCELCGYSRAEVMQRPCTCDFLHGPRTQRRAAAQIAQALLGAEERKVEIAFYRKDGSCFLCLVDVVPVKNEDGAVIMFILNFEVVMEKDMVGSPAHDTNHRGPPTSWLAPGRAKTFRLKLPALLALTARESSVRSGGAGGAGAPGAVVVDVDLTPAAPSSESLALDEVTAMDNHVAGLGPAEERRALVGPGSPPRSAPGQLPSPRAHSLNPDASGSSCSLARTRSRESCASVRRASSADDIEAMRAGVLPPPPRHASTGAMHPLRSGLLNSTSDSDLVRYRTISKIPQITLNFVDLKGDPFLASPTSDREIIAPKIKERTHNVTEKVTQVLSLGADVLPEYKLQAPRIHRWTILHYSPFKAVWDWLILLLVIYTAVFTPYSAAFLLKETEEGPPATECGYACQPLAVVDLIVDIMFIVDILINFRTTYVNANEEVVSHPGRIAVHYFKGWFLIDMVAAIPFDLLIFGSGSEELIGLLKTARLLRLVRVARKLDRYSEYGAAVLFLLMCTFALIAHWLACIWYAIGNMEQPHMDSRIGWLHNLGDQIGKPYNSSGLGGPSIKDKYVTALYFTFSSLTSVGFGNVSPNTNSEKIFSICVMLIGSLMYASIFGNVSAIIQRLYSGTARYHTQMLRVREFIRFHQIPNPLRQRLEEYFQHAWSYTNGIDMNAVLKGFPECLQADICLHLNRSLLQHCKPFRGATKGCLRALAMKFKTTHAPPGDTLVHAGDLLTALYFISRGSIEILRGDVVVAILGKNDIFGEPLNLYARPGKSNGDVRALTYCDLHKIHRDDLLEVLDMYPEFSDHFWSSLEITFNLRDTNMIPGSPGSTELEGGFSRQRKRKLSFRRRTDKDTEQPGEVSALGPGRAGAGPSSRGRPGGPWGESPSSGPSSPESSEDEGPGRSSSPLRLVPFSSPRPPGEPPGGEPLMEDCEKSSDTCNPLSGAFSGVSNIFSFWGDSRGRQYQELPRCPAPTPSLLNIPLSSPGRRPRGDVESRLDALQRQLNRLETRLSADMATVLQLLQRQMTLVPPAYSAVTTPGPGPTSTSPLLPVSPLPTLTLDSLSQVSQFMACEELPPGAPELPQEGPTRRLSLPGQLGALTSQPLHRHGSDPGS

[31] = Cytotoxicity against African green monkey Vero cells assessed as reduction in cell viability treated for 72 hrs by CCK8 assay; format: toxicity, cell-based; conditions: chlorocebus sabaeus
[32] = Oral bioavailability in Sprague-Dawley rat at 10 mg/kg via gavage measured for 0.25 to 96 hrs by LC/MS analysis; format: ADME, organism-based; conditions: in vivo, time 0.25-96 hrs
[33] = Acute toxicity in 10 to 14 hr fasted Sprague-Dawley rat assessed as maximum tolerated dose administered orally via gavage; conditions: in vivo, time 10-14 hrs, route po
[34] = Half life in Sprague-Dawley rat at 10 mg/kg, po via gavage measured for 0.25 to 96 hrs by LC/MS analysis; format: ADME, organism-based; conditions: in vivo, time 0.25-96 hrs
[35] = tested on: Mycobacterium tuberculosis; format: functional; conditions: H37Rv
[36] = tested on: Mycobacterium tuberculosis; test: Antibacterial activity against Mycobacterium tuberculosis Erdman in acute Mtb infection BALB/c mouse model assessed as reduction in log10 CFU in lungs at 50 mg/kg, po via gavage for 8 weeks; format: functional
[37] = Cytotoxicity against African green monkey Vero cells assessed as reduction in cell viability treated for 3 days by Cell Titer Glo assay; format: toxicity, cell-based; conditions: chlorocebus sabaeus, time 3 day
[38] = tested on: Mycobacterium tuberculosis; format: functional, H37Rv; conditions: dose 100 mg/kg; route po; time 4 weeks
HepG2 [39] = test: Cytotoxicity against human HepG2 cells treated for 48 hrs by resazurin dye based assay; format: functional
[40] = Metabolic stability in human liver microsomes assessed as compound remaining measured after 1 hr in presence of NADP+ by LC-MS/MS analysis; format: ADME, Microsome; conditions: read-out: Stability
[41] = Metabolic stability in mouse liver microsomes assessed as compound remaining measured after 1 hr in presence of NADP+ by LC-MS/MS analysis; format: ADME, Microsome; conditions: read-out: Stability
Cytochrome P450 3A4 = Cytochrome P450 3A4 (Homo sapiens, UniProt P08684); test: Inhibition of CYP3A4 in human liver microsome using midazolam as substrate incubated for 10 mins in presence of NADP+ by LC-MS/MS analysis; format: ADME, microsomes
Cytochrome P450 3A4, sequence (P08684 whole entry): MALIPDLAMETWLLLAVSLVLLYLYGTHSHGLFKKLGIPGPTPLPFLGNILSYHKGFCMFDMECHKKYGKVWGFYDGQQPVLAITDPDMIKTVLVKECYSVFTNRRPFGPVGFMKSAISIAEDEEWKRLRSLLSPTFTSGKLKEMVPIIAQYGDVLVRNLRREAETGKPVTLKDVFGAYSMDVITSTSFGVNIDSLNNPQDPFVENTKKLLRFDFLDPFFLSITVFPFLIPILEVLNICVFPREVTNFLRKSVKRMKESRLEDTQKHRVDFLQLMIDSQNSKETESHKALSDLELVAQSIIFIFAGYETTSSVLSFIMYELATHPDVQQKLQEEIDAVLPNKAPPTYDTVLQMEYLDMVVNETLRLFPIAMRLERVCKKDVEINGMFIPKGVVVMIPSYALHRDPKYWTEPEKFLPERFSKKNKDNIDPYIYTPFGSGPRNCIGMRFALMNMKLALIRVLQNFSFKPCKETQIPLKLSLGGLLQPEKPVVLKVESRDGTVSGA

[42] = tested on: Mycobacterium tuberculosis; format: functional; conditions: H37Rv, time 6 day
[43] = tested on: Mycolicibacterium smegmatis; test: Inhibition of ATP synthesis in Mycobacterium smegmatis derived membrane vesicle incubated for 60 mins by luciferase based assay; format: functional; conditions: 1 h
[44] = tested on: Mycobacterium tuberculosis; format: functional, H37Rv; conditions: dose 100 mg/kg; route po; time 2 weeks
[45] = tested on: Mycobacterium tuberculosis; format: functional, H37Rv; conditions: dose 100 mg/kg; route po; time 4 weeks; remark: listed apart in the source
[46] = tested on: Mycobacterium tuberculosis; format: functional, H37Rv; conditions: dose 150 mg/kg; route po; time 10 day
HepG2 [47] = test: Cytotoxicity against human HepG2 cells assessed as reduction in cell viability treated for 3 days by resazurin dye based assay; format: functional; conditions: HepG2, 72 h, time 3 day

`CCSc1ncc(CN2CCN(c3nc4ccccc4o3)CC2)cn1` showed an Activity [1] of 0.7 log10CFU, a CC50 at 72 h [2] greater than 141 µM and an Activity [3] of 0.9 log10CFU. For the same compound, the fraction unbound [4] was 0.03, the solubility kinetic [5] was 76 µM (≈ 27 µg/mL) and the Activity [6] was 54%. It also gave a half-life [7] of 49 min.
Compound `O=C1C=CN(c2c(F)cc(N3C[C@H](CNc4ccon4)OC3=O)c(F)c2F)CC1` [CONTEZOLID] has an Activity [8] of 2.3 log10CFU and an MIC [9] of 1.2 µM (≈ 0.49 µg/mL).
In the case of `CC(=O)NC[C@@H]1OC(=O)N2c3cc(F)c(N4CCSCC4)cc3OC[C@@H]12`, the MIC90 [10] is reported as 0.08 µM (≈ 0.0305 µg/mL), the Activity [11] is reported as 5.1 log10CFU and the Activity [12] is reported as “>=3 log10CFU”.
For `Cc1cn2c(C(=O)NCc3ccc(N4CCN(c5ccc(C(F)(F)F)cn5)CC4)c(F)c3)c(C)nc2s1`, the Activity [13] was 0.6 log10CFU, the Papp [14] was less than 1 ×10⁻⁶ cm/s and the CC50 at 48 h [15] was greater than 100 µM. The Activity [16] was 0.3 log10CFU, the MIC [17] was 1.1 µM (≈ 0.586 µg/mL) and the Activity [18] was 0.3 log10CFU. For the same compound, the solubility [19] was 50 µM (≈ 26.6 µg/mL), the MIC90 [20] was 0.008 µM (≈ 0.00426 µg/mL) and the half-life [21] was 28 min. The half-life [22] was greater than 1440 min.
`O=[N+]([O-])c1cc2cccnc2c2ncccc12` gave an MIC99 [23] of 0.78 µM (≈ 0.176 µg/mL) and a CC50 at 96 h [24] greater than 25 µM.
With `CC1(C)CCC(OC(=O)Nc2cc(O)cc(Cc3ccccc3)c2)CC1` the Activity [25] was 1.3 log10RLU, the half-life [26] was 1.8 min and the MIC90 [27] was 1.8 µM (≈ 0.636 µg/mL). For the same compound, the CC50 (A549) was 64 µM.
For `COc1ccn2nc(C)c(C(=O)NCc3ccc(N4CCC(c5ccc(OC(F)(F)F)cc5)CC4)cc3)c2c1`, the Activity [28] was 2.2 log10CFU, the Activity [29] was 2.2 log10CFU and the IC50 [30] was greater than 30 µM. The CC50 at 72 h [31] was greater than 100 µM, the bioavailability [32] was 94% and the MTD [33] was greater than 2000 mg/kg. It also gave a half-life [34] of 1140 min, an MIC90 [35] of 0.011 µM (≈ 0.00592 µg/mL) and an Activity [36] of 0.3 log10CFU. For the same compound, the CC50 at 72 h [37] was greater than 100 µM.
`CC(C)c1ccc(-c2nc(CN3CCN(c4ccnc5cc(-c6cccnc6)ccc45)CC3)no2)cc1` showed an Activity [38] of 0.6 log10CFU, a CC50 (HepG2 [39]) greater than 130 µM and a remaining at 1 h [40] of 40%. It also gave a remaining at 1 h [41] of 1.2%, an IC50 (Cytochrome P450 3A4) greater than 25 µM and an MIC [42] of 1 µM (≈ 0.491 µg/mL).
With `CN(C)CCOc1ncc(Nc2cc(-c3ccccc3)nc3cc(-c4ccc(F)cc4)nn23)cc1F` the IC50 [43] was 0.5 µM, the MIC80 [27] was 6.2 µM (≈ 3.02 µg/mL) and the Activity [44] was 1.5 log10CFU.
With `Cc1cnc2c(c1)cc([N+](=O)[O-])c1cccnc12` the MIC99 [23] was 0.2 µM (≈ 0.0478 µg/mL) and the Activity [45] was 1 log10CFU.
With `CCSc1nc(NC)c2ccc(F)c(F)c2n1` the Activity [46] was 0.5 log10CFU, the CC50 (HepG2 [47]) was 153 µM and the MIC90 [42] was 0.2 µM (≈ 0.0511 µg/mL).
